Measured values from ChEMBL document CHEMBL5291721, “A preclinical secondary pharmacology resource illuminates target-adverse drug reaction associations of marketed drugs” (Nat Commun, 2023).

How the values were obtained:
[1] = biological target: T1, Adenosine receptor A1 (Homo sapiens, UniProt P30542)
T1 sequence (P30542 whole entry): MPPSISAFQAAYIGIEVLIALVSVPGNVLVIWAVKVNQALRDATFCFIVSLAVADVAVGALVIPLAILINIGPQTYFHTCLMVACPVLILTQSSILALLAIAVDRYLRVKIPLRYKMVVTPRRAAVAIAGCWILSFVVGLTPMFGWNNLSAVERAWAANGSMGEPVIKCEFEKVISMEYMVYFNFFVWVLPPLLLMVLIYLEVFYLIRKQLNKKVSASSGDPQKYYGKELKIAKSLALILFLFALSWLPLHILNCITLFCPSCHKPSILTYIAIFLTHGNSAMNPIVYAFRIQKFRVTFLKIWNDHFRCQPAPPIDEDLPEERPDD

[2] = biological target: Melanocortin receptor 3 (Homo sapiens, UniProt P41968)
Chain of Melanocortin receptor 3 (P41968 whole entry): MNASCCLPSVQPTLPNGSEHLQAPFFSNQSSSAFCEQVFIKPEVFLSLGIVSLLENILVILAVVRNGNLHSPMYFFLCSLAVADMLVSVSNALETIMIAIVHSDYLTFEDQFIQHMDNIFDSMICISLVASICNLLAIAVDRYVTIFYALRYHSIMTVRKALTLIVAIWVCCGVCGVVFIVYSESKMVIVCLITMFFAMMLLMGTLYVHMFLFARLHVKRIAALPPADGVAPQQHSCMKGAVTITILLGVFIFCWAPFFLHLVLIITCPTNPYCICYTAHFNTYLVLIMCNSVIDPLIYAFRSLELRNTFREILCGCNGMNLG

[3] = biological target: T2, Prostaglandin G/H synthase 1 (Rattus norvegicus, UniProt Q63921); type: functional
T2 sequence (Q63921 whole entry): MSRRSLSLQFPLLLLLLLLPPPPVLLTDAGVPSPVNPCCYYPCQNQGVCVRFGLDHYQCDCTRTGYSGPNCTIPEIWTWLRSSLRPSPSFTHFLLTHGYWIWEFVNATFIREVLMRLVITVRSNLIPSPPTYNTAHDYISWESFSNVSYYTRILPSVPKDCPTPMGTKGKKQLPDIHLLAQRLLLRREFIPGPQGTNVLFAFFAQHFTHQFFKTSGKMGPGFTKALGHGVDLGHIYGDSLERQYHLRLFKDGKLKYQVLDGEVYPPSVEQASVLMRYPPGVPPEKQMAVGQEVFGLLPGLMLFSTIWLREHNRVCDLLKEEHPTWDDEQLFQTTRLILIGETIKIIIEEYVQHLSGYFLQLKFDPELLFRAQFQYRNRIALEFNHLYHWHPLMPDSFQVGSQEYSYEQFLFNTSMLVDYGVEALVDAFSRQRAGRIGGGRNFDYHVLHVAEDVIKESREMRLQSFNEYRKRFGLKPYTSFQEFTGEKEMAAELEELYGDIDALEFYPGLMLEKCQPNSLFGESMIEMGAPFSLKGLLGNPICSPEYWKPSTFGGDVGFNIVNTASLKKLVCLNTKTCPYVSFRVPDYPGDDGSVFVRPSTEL

[4] = biological target: T3, Equilibrative nucleoside transporter 1 (Homo sapiens, UniProt Q99808)
T3 sequence (Q99808 whole entry): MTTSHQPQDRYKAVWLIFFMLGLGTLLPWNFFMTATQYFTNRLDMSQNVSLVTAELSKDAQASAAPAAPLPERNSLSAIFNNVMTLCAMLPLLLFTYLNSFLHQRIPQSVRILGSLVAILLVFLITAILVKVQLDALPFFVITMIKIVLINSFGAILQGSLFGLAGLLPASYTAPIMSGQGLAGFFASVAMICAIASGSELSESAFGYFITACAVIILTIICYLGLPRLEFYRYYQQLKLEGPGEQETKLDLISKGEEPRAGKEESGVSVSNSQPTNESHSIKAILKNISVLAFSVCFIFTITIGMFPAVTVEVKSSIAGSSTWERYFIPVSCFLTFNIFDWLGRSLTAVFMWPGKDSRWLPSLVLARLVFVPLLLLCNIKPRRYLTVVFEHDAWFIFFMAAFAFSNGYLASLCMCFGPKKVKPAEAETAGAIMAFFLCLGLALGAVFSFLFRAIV

[5] = biological target: T4, B1 bradykinin receptor (Homo sapiens, UniProt P46663)
T4 sequence (P46663 whole entry): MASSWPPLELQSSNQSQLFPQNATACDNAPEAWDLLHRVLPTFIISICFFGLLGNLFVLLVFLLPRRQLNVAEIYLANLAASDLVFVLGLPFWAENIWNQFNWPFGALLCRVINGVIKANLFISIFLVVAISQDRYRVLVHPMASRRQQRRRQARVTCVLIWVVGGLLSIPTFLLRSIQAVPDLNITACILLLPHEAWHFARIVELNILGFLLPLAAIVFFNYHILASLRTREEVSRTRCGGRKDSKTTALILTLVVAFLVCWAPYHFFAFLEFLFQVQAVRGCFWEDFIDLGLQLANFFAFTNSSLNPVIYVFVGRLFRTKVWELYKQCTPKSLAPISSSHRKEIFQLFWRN

[6] = biological target: Cannabinoid receptor 1 (Homo sapiens, UniProt P21554)
Chain of Cannabinoid receptor 1 (P21554 whole entry): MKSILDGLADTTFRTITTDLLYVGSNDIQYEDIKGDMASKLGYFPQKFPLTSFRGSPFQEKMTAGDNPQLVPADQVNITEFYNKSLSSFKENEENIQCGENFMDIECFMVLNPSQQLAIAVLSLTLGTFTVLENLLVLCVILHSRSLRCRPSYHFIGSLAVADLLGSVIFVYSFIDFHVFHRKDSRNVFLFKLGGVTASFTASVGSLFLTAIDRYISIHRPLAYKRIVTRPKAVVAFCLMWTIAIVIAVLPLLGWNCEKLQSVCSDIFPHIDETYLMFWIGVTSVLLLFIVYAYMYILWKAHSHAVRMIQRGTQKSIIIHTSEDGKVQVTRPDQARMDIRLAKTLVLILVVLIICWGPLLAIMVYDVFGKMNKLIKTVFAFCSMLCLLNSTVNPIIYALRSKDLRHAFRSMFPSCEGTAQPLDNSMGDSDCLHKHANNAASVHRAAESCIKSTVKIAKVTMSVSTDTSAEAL

[7] = biological target: T5, Endothelin receptor type B (Homo sapiens, UniProt P24530)
T5 sequence (P24530 whole entry): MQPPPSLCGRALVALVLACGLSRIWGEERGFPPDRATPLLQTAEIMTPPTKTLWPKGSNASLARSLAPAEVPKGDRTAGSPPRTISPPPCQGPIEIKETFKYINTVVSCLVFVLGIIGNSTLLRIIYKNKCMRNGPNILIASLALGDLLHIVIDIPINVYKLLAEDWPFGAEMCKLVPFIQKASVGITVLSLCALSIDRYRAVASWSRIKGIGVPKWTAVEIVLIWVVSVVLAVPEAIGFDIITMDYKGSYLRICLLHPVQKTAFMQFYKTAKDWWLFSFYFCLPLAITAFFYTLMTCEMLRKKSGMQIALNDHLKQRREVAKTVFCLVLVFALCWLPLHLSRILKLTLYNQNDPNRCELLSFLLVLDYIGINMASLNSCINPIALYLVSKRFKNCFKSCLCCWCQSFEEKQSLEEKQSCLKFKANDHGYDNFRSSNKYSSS

[8] = biological target: Glutamate receptor ionotropic, NMDA 1 (Rattus norvegicus, UniProt P35439)
[9] = biological target: Delta-type opioid receptor (Homo sapiens, UniProt P41143)
Chain of Delta-type opioid receptor (P41143 whole entry): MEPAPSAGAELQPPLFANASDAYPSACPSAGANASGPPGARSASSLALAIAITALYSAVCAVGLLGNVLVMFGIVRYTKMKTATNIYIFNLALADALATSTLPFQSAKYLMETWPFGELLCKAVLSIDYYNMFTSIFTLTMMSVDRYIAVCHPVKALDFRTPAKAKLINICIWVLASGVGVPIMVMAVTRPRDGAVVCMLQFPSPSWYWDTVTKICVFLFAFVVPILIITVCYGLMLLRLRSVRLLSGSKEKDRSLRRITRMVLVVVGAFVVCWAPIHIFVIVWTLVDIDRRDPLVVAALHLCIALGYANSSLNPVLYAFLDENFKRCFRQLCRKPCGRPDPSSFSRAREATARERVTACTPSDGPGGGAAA

[10] = biological target: T6, Thromboxane A2 receptor (Homo sapiens, UniProt P21731)
T6 sequence (P21731 whole entry): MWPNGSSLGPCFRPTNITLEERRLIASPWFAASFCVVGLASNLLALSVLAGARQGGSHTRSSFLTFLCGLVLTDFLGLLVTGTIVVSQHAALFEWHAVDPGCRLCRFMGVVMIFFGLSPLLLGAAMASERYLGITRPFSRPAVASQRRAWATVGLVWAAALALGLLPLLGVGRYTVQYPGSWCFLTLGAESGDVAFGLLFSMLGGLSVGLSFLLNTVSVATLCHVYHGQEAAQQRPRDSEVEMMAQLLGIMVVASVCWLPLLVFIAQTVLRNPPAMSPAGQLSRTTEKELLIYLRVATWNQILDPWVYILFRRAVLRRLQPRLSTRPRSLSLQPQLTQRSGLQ
Note: assay procedure not described here.

Structure (SMILES) | AC50 [1] [µM] | AC50 [2] [µM] | AC50 [3] [µM] | AC50 [4] [µM] | AC50 [5] [µM] | AC50 [6] [µM] | AC50 [7] [µM] | AC50 [8] [µM] | AC50 [9] [µM] | AC50 [10] [µM]
CCC(CC)(CC(=O)Nc1cccc(/C=C/c2nc(C3CCC3)cs2)c1)C(=O)O | > 30 | > 30 | > 30 | > 30 | – | – | – | – | – | –
CCCCCNC(=N)N/N=C/c1c[nH]c2ccc(OC)cc12 [TEGASEROD] | > 30 | 11.5 | 25 | > 30 | > 30 | 10 | > 30 | 16 | > 30 | 8.39
O=[N+]([O-])O[C@@H]1CO[C@H]2[C@@H]1OC[C@@H]2O [ISOSORBIDE MONONITRATE] | > 30 | > 30 | > 30 | > 30 | > 30 | > 10 | > 30 | > 10 | > 30 | > 30
CN(C)CC/C=C1\c2ccccc2CSc2ccccc21 [DOTHIEPIN] | – | 25 | > 30 | – | – | – | – | > 30 | > 30 | > 30
O=C(Oc1ccc2c(c1)CCCN2C(=O)C(Cl)Cl)c1ccco1 [QUINFAMIDE] | 29.4 | – | – | – | – | – | – | – | – | –
CC(C)(C)C(=O)OCOC(=O)[C@@H]1N2C(=O)[C@@H](NC(=O)[C@H](N)c3ccccc3)[C@H]2SC1(C)C [PIVAMPICILLIN] | > 30 | – | – | – | – | – | – | – | – | –
CC[C@@H](C(N)=O)N1CCCC1=O | – | > 30 | > 30 | > 30 | – | – | – | > 30 | > 30 | –
CCCCS(=O)(=O)N[C@@H](Cc1ccc(OCCCCC2CCNCC2)cc1)C(=O)O [TIROFIBAN] | > 30 | – | – | – | – | – | – | – | – | –
Clc1cc(Cl)c(OCC#CI)cc1Cl [HALOPROGIN] | 15.4 | – | – | – | – | – | – | – | – | –
Cc1oc(=O)oc1CN1CCN(c2cc3c(cc2F)c(=O)c(C(=O)O)c2n3C(C)S2)CC1 (configuration not stated) [PRULIFLOXACIN] | > 30 | – | – | – | – | – | – | > 30 | > 30 | –
NC1CCN(c2c(F)cc3c(=O)c(C(=O)O)cn(C4CC4)c3c2Cl)C1 (configuration not stated) [CLINAFLOXACIN] | – | – | – | – | – | – | – | – | 18 | –
COc1ccccc1N1CCN(CC(O)COc2cccc3ccccc23)CC1 (configuration not stated) [NAFTOPIDIL] | > 30 | > 30 | > 30 | 13 | – | – | – | > 30 | 12 | > 30
Nc1ccncc1N [AMIFAMPRIDINE] | > 30 | – | – | – | – | – | – | – | – | –
CCOc1ccc(Cc2cc([C@@H]3O[C@H](CO)[C@@H](O)[C@H](O)[C@H]3O)ccc2Cl)cc1 [DAPAGLIFLOZIN] | – | > 30 | > 30 | > 30 | – | > 10 | – | > 10 | > 30 | > 30
COc1ccc(C(=O)Nc2ccccc2CCC2CCCCN2C)cc1 (configuration not stated) [ENCAINIDE] | – | > 30 | > 30 | > 30 | > 30 | > 10 | > 30 | > 10 | > 30 | > 30
C=CCCCCCCCCC(=O)O [UNDECYLENIC ACID] | > 30 | – | – | – | – | – | – | – | – | –
O=[N+]([O-])c1cn2c(n1)OC[C@@H](OCc1ccc(OC(F)(F)F)cc1)C2 [PRETOMANID] | – | > 30 | – | > 30 | > 30 | – | > 30 | > 10 | > 10 | > 30
CCOc1ccccc1OCC1CNCCO1 (configuration not stated) [VILOXAZINE] | – | > 30 | > 30 | > 30 | > 30 | > 10 | > 30 | > 10 | > 10 | > 30
COC1=C(OC)C(=O)C(C/C=C(\C)CC/C=C(\C)CC/C=C(\C)CC/C=C(\C)CC/C=C(\C)CC/C=C(\C)CC/C=C(\C)CC/C=C(\C)CC/C=C(\C)CCC=C(C)C)=C(C)C1=O [UBIDECARENONE] | > 30 | – | – | – | – | – | – | > 30 | > 30 | –
CN(C)CCc1c[nH]c2ccc(C[C@H]3COC(=O)N3)cc12 [ZOLMITRIPTAN] | – | > 30 | > 30 | > 30 | – | – | – | > 30 | > 10 | –
CC(=O)OCC1=C(C(=O)O)N2C(=O)[C@@H](NC(=O)[C@H](N)c3ccccc3)[C@H]2SC1 [CEPHALOGLYCIN] | > 30 | – | – | – | – | – | – | – | – | –
C=CCN1C[C@H](C(=O)N(CCCN(C)C)C(=O)NCC)C[C@@H]2c3cccc4[nH]cc(c34)C[C@H]21 [CABERGOLINE] | – | > 10 | > 10 | > 30 | – | – | – | > 10 | > 30 | > 10
CCCC1O[C@@H]2C[C@H]3[C@@H]4CCC5=CC(=O)C=C[C@]5(C)[C@H]4[C@@H](O)C[C@]3(C)[C@]2(C(=O)CO)O1 (some centres not stated) [BUDESONIDE] | – | > 10 | > 10 | > 10 | – | > 10 | – | > 10 | > 30 | > 10
CN1CCN(C2=Nc3ccccc3Sc3ccc(Cl)cc32)CC1 [CLOTHIAPINE] | > 30 | – | – | – | – | – | – | > 30 | 22 | –
CN(C)CCC=C1c2ccccc2C=Cc2ccccc21 [CYCLOBENZAPRINE] | – | > 30 | > 30 | > 30 | > 30 | > 10 | > 30 | > 10 | > 30 | > 30
Cc1cc(C)c(NC(=O)CN(CC(=O)O)CC(=O)O)c(C)c1Br [MEBROFENIN] | > 30 | – | – | – | – | – | – | > 30 | > 30 | –
CC[C@H]1CN2CCc3cc(OC)c(OC)cc3[C@@H]2C[C@@H]1C[C@H]1NCCc2cc(OC)c(OC)cc21 [EMETINE] | > 30 | > 30 | > 30 | > 30 | – | – | – | > 30 | > 30 | > 30
